In ChEMBL document CHEMBL4251572, “Novel aminopyrimidinyl benzimidazoles as potentially antimicrobial agents: Design, synthesis and biological evaluation” (Eur J Med Chem, 2018):
Converted amounts (≈) assume the structure as drawn.

Key:
Staphylococcus aureus [1] = experiment: Antibacterial activity against methicillin-resistant Staphylococcus aureus N315 after 24 hrs by micro broth dilution assay; assay type: functional; conditions: N315, 24 h
Staphylococcus aureus [2] = experiment: Antibacterial activity against methicillin-resistant Staphylococcus aureus N315 incubated for 24 hrs followed by plating onto tryptic soy agar medium and measured after 24 hrs; assay type: functional; conditions: N315, 24 h
Staphylococcus aureus [3] = experiment: Ratio of MBC for Staphylococcus aureus ATCC 25923 to MIC for Staphylococcus aureus ATCC 25923; assay type: functional
Cyberlindnera jadinii = experiment: Antifungal against Candida utilis after 24 hrs by two fold serial dilution method; assay type: functional; conditions: Williopsis jadinii
Pseudomonas aeruginosa [4] = experiment: Ratio of MBC for Pseudomonas aeruginosa to MIC for Pseudomonas aeruginosa; assay type: functional
Pseudomonas aeruginosa [5] = experiment: Antibacterial activity against Pseudomonas aeruginosa incubated for 24 hrs followed by plating onto tryptic soy agar medium and measured after 24 hrs; assay type: functional
Micrococcus luteus = experiment: Antibacterial activity against Micrococcus luteus ATCC4698 after 24 hrs by micro broth dilution assay; assay type: functional; conditions: ATCC4698, 24 h
Staphylococcus aureus [6] = experiment: Antibacterial activity against Staphylococcus aureus ATCC 25923 incubated for 24 hrs followed by plating onto tryptic soy agar medium and measured after 24 hrs; assay type: functional; conditions: ATCC 25923, 24 h
Pseudomonas aeruginosa [7] = experiment: Antibacterial activity against Pseudomonas aeruginosa after 24 hrs by micro broth dilution assay; assay type: functional
Candida albicans = experiment: Antifungal against Candida albicans ATCC 76615 after 24 hrs by two fold serial dilution method; assay type: functional; conditions: ATCC 76615, 24 h
Escherichia coli [8] = experiment: Antibacterial activity against Escherichia coli DH52 after 24 hrs by micro broth dilution assay; assay type: functional; conditions: DH52, 24 h
Pichia norvegensis = experiment: Antifungal against Candida mycoderma after 24 hrs by two fold serial dilution method; assay type: functional
Salmonella typhi = experiment: Antibacterial activity against Bacillus typhi after 24 hrs by micro broth dilution assay; assay type: functional, Salmonella enterica subsp. enterica serovar Typhi; conditions: Salmonella enterica
Bacillus = experiment: Antibacterial activity against Bacillus proteus ATCC 13315 after 24 hrs by micro broth dilution assay; assay type: functional; conditions: ATCC 13315, 24 h
Escherichia coli [9] = experiment: Antibacterial activity against Escherichia coli JM109 after 24 hrs by micro broth dilution assay; assay type: functional; conditions: JM109, 24 h
Saccharomyces cerevisiae = experiment: Antifungal against Saccharomyces cerevisiae after 24 hrs by two fold serial dilution method; assay type: functional
Staphylococcus aureus [10] = experiment: Antibacterial activity against Staphylococcus aureus ATCC 25923 after 24 hrs by micro broth dilution assay; assay type: functional; conditions: ATCC 25923, 24 h
Bacillus subtilis = experiment: Antibacterial activity against Bacillus subtilis after 24 hrs by micro broth dilution assay; assay type: functional
Aspergillus flavus = experiment: Antifungal against Aspergillus flavus after 24 hrs by two fold serial dilution method; assay type: functional
Shigella dysenteriae = experiment: Antibacterial activity against Shigella dysenteriae after 24 hrs by micro broth dilution assay; assay type: functional
Staphylococcus aureus [11] = experiment: Ratio of MBC for methicillin-resistant Staphylococcus aureus N315 to MIC for methicillin-resistant Staphylococcus aureus N315; assay type: functional

| SMILES | MIC (Staphylococcus aureus [1]) [µg/mL] | MBC (Staphylococcus aureus [2]) [µg/mL] | Ratio (Staphylococcus aureus [3]) | MIC (Cyberlindnera jadinii) [µg/mL] | Ratio (Pseudomonas aeruginosa [4]) | MBC (Pseudomonas aeruginosa [5]) [µg/mL] | MIC (Micrococcus luteus) [µg/mL] | MBC (Staphylococcus aureus [6]) [µg/mL] | MIC (Pseudomonas aeruginosa [7]) [µg/mL] | MIC (Candida albicans) [µg/mL] | MIC (Escherichia coli [8]) [µg/mL] | MIC (Pichia norvegensis) [µg/mL] | MIC (Salmonella typhi) [µg/mL] | MIC (Bacillus) [µg/mL] | MIC (Escherichia coli [9]) [µg/mL] | MIC (Saccharomyces cerevisiae) [µg/mL] | MIC (Staphylococcus aureus [10]) [µg/mL] | MIC (Bacillus subtilis) [µg/mL] | MIC (Aspergillus flavus) [µg/mL] | MIC (Shigella dysenteriae) [µg/mL] | also measured |
| --- | --- | --- | --- | --- | --- | --- | --- | --- | --- | --- | --- | --- | --- | --- | --- | --- | --- | --- | --- | --- | --- |
| CCCCCCCn1c(-c2cc(-c3ccc(Cl)cc3Cl)nc(N)n2)nc2ccccc21 | 512 (≈ 1130 µM) | > 512 | 2 | 128 (≈ 282 µM) | 2 | 128 (≈ 282 µM) | 16 (≈ 35.2 µM) | 512 (≈ 1130 µM) | 64 (≈ 141 µM) | 4 (≈ 8.8 µM) | 32 (≈ 70.4 µM) | 256 (≈ 563 µM) | 32 (≈ 70.4 µM) | 512 (≈ 1130 µM) | 512 (≈ 1130 µM) | 128 (≈ 282 µM) | 256 (≈ 563 µM) | 256 (≈ 563 µM) | 256 (≈ 563 µM) | 128 (≈ 282 µM) |  |
| CCCCCCCn1c(-c2cc(-c3ccc(C)cc3)nc(N)n2)nc2ccccc21 | 32 (≈ 80.1 µM) | 32 (≈ 80.1 µM) |  | 32 (≈ 80.1 µM) | 1 | 4 (≈ 10 µM) | 8 (≈ 20 µM) | > 512 | 4 (≈ 10 µM) | 32 (≈ 80.1 µM) | 4 (≈ 10 µM) | 512 (≈ 1280 µM) | 2 (≈ 5.01 µM) | 256 (≈ 641 µM) | 16 (≈ 40 µM) | 4 (≈ 10 µM) | 512 (≈ 1280 µM) | 512 (≈ 1280 µM) | 512 (≈ 1280 µM) | 4 (≈ 10 µM) | Ratio (Staphylococcus aureus [11]): 1 |
| Nc1nc(-c2nc3ccccc3[nH]2)cc(-c2ccc(Cl)cc2Cl)n1 | 8 (≈ 22.5 µM) | 16 (≈ 44.9 µM) | 1 | 2 (≈ 5.61 µM) | 2 | 64 (≈ 180 µM) | 1 (≈ 2.81 µM) | 8 (≈ 22.5 µM) | 32 (≈ 89.8 µM) | 1 (≈ 2.81 µM) | 16 (≈ 44.9 µM) | 2 (≈ 5.61 µM) | 16 (≈ 44.9 µM) | 1 (≈ 2.81 µM) | 64 (≈ 180 µM) | 8 (≈ 22.5 µM) | 8 (≈ 22.5 µM) | 8 (≈ 22.5 µM) | 8 (≈ 22.5 µM) | 16 (≈ 44.9 µM) | Ratio (Staphylococcus aureus [11]): 2 |
| CCCCCCn1c(-c2cc(-c3ccc(Cl)cc3)nc(N)n2)nc2ccccc21 | 32 (≈ 78.8 µM) | 32 (≈ 78.8 µM) | 2 | 8 (≈ 19.7 µM) |  | > 512 | 2 (≈ 4.93 µM) | 512 (≈ 1260 µM) | 512 (≈ 1260 µM) | 4 (≈ 9.85 µM) | 2 (≈ 4.93 µM) | 8 (≈ 19.7 µM) | 128 (≈ 315 µM) | 256 (≈ 631 µM) | 16 (≈ 39.4 µM) | 512 (≈ 1260 µM) | 256 (≈ 631 µM) | 128 (≈ 315 µM) | 32 (≈ 78.8 µM) | 64 (≈ 158 µM) | Ratio (Staphylococcus aureus [11]): 1 |
| CCCCn1c(-c2cc(-c3ccc(Cl)cc3)nc(N)n2)nc2ccccc21 | 32 (≈ 84.7 µM) | 64 (≈ 169 µM) | 1 | 2 (≈ 5.29 µM) | 8 | 512 (≈ 1350 µM) | 64 (≈ 169 µM) | 16 (≈ 42.3 µM) | 64 (≈ 169 µM) | 64 (≈ 169 µM) | 128 (≈ 339 µM) | 4 (≈ 10.6 µM) | 8 (≈ 21.2 µM) | 4 (≈ 10.6 µM) | 64 (≈ 169 µM) | 128 (≈ 339 µM) | 16 (≈ 42.3 µM) | 64 (≈ 169 µM) | 256 (≈ 677 µM) | 256 (≈ 677 µM) | Ratio (Staphylococcus aureus [11]): 2 |
| Nc1nc(-c2ccc(Cl)cc2)cc(-c2nc3ccccc3[nH]2)n1 | 128 to 512 (≈ 398 to 1590 µM) | 256 (≈ 796 µM) | 4 | 2 (≈ 6.22 µM) | 4 | 512 (≈ 1590 µM) | 64 (≈ 199 µM) | 256 (≈ 796 µM) | 128 (≈ 398 µM) | 1 (≈ 3.11 µM) | 128 (≈ 398 µM) | 512 (≈ 1590 µM) | 512 (≈ 1590 µM) | 8 (≈ 24.9 µM) | 32 (≈ 99.4 µM) | 512 (≈ 1590 µM) | 64 (≈ 199 µM) | 64 (≈ 199 µM) | 4 (≈ 12.4 µM) | 32 (≈ 99.4 µM) | Ratio (Staphylococcus aureus [11]): 2 |
| CCCCn1c(-c2cc(-c3ccc(F)cc3)nc(N)n2)nc2ccccc21 | 256 (≈ 708 µM) | > 512 | 2 | 8 (≈ 22.1 µM) |  | > 512 | 512 (≈ 1420 µM) | 256 (≈ 708 µM) | 512 (≈ 1420 µM) | 512 (≈ 1420 µM) | 8 (≈ 22.1 µM) | 8 (≈ 22.1 µM) | 8 (≈ 22.1 µM) | 64 (≈ 177 µM) | 256 (≈ 708 µM) | 32 (≈ 88.5 µM) | 128 (≈ 354 µM) | 1 (≈ 2.77 µM) | 512 (≈ 1420 µM) | 8 (≈ 22.1 µM) |  |
| CCCCCCn1c(C(=O)/C=C/c2ccc(F)cc2)nc2ccccc21 | 512 (≈ 1460 µM) |  |  | 512 (≈ 1460 µM) |  |  | 16 (≈ 45.7 µM) |  | 512 (≈ 1460 µM) | 256 (≈ 731 µM) | 32 (≈ 91.3 µM) | 512 (≈ 1460 µM) | 512 (≈ 1460 µM) | 64 (≈ 183 µM) | 512 (≈ 1460 µM) | 512 (≈ 1460 µM) | 512 (≈ 1460 µM) | 256 (≈ 731 µM) | 16 (≈ 45.7 µM) | 256 (≈ 731 µM) |  |
